Experimental data from the SangsterLogP compilation.

Assay: method code SF-AS, from PMID: 7324974
Details: pH 5.0

| SMILES | logD |
| --- | --- |
| CCOC(=O)C1=CNC2CCCCN2C1=O (centres undefined) | 0.57 |
| CCc1cc(=O)n2c(C)cccc2n1 | 1.59 |
| Cc1cccc2ncc(-c3ccccc3)c(=O)n12 | 2.59 |
| CCc1cccc2nc(C)cc(=O)n12 | 1.63 |
| CCc1nc2cccc(C)n2c(=O)c1C | 1.87 |
| CCOC(=O)c1cnc2ccccn2c1=O | 0.25 |
| COC(=O)c1cnc2n(c1=O)CCCC2 | -0.25 |
| CCN1C=C(C(N)=O)C(=O)N2C(C)CCCC12 (centres undefined) | 0.6 |
| CCOC(=O)c1cnc2cc(C)ccn2c1=O | 0.87 |
| CC1CCCC2NC=C(C(N)=O)C(=O)N12 (centres undefined) | 0.51 |
| CCCCC1CCCc2ncc(C(=O)OC)c(=O)n21 (centres undefined) | 1.77 |
| CCOC(=O)c1cnc2n(c1=O)CCCC2 | 0.15 |
| CCCc1nc2cccc(C)n2c(=O)c1CC | 2.37 |
| CCOC(=O)c1cnc2n(c1=O)CC(C)CC2 (centres undefined) | 0.71 |
| CCOC(=O)c1cnc2n(c1=O)C(C)CCC2 (centres undefined) | 0.62 |
| CCOC(=O)C1=CN(C)C2CCCC(C)N2C1=O (centres undefined) | 0.45 |
| CCOC(=O)c1cnc2n(c1=O)CCC(C)C2 (centres undefined) | 0.66 |
| CCOC(=O)c1cnc2ccc(C)cn2c1=O | 0.9 |
| Cc1cc(=O)n2c(C)cccc2n1 | 1.05 |
| CC1CCCc2ncc(C(N)=O)c(=O)n21 (centres undefined) | 0.04 |
| CCOC(=O)c1cnc2c(C)cccn2c1=O | 1.16 |
| CC1CCC=C2N(C)C=C(C(N)=O)C(=O)N21 (centres undefined) | 0.12 |
| CCOC(=O)C1=CNC2CCCC(C)N2C1=O (centres undefined) | 0.79 |
| CCOC(=O)c1cnc2cccc(C)n2c1=O | 0.96 |
| COC(=O)c1cnc2n(c1=O)C(C(C)C)CCC2 (centres undefined) | 0.99 |
| Cc1cnc2ccccn2c1=O | 0.77 |
| CCCC1CCCc2ncc(C(=O)OC)c(=O)n21 (centres undefined) | 1.14 |
| CC1CCCC2N(C)C=C(C(N)=O)C(=O)N12 (centres undefined) | 0.22 |
| COC(=O)c1cnc2n(c1=O)C(C)CCC2 (centres undefined) | 0.16 |
